Assay results as given in ChEMBL document CHEMBL1201862, “PubChem BioAssay data set” (2004).
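Interpolation was linear, between the two tested concentrations surrounding the appropriate level; five concentrations were tested over 48 hours in 96-well plates. At the GI50, growth is halved.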 The source made the active and inactive calls. No stated cut-off is given here; in the data, active = GI50 up to about 1.1 µM and inactive = higher.

How the values were obtained:
Experiment in all cases: NCI tumour cell line growth inhibition, 48 h
MDA-MB-435 = system: MDA-MB-435
SF-539 = system: SF-539
MCF7 = system: MCF7
PC-3 = system: PC-3
NCI-H460 = system: NCI-H460
OVCAR-4 = system: OVCAR-4
EKVX = system: EKVX
OVCAR-8 = system: OVCAR-8
TK-10 = system: TK-10
Hs-578T = system: Hs-578T
SNB-19 = system: SNB-19
OVCAR-5 = system: OVCAR-5
MDA-MB-231 = system: MDA-MB-231
DU-145 = system: DU-145
ACHN = system: ACHN
HL-60 = system: HL-60
NCI-H522 = system: NCI-H522
RPMI-8226 = system: RPMI-8226
A498 = system: A498

Measured: GI50

O=C(O)c1cc(/C=C/c2cc(O)ccc2O)ccc1O
inactive: MDA-MB-435 > 10 µM | SF-539 > 10 µM | MCF7 3.91 µM | PC-3 > 10 µM | NCI-H460 > 10 µM | OVCAR-4 > 10 µM | EKVX > 10 µM | OVCAR-8 > 10 µM | TK-10 > 10 µM | Hs-578T > 10 µM | SNB-19 > 10 µM | OVCAR-5 > 10 µM | MDA-MB-231 > 10 µM | DU-145 > 10 µM | ACHN > 10 µM | HL-60 > 10 µM | NCI-H522 > 10 µM

O=C1CC(=O)NC(NN2C(=O)CSC2c2ccc(Cl)cc2)=N1 (configuration not stated)
inactive: MDA-MB-435 > 100 µM | SF-539 > 100 µM | MCF7 61.1 µM | PC-3 > 100 µM | NCI-H460 51.3 µM | RPMI-8226 > 100 µM | OVCAR-4 > 100 µM | OVCAR-8 91.6 µM | TK-10 > 100 µM | Hs-578T 25.6 µM | OVCAR-5 > 100 µM | MDA-MB-231 36.7 µM | DU-145 > 100 µM | ACHN > 100 µM | A498 > 100 µM | NCI-H522 > 100 µM

C=C[C@@H]1C(CO)=CCC2[C@H]1CCC1C(C)(C)C(=O)CC[C@]21C (some centres not stated)
inactive: MDA-MB-435 > 100 µM | SF-539 > 100 µM | MCF7 > 100 µM | PC-3 > 100 µM | NCI-H460 > 100 µM | RPMI-8226 > 100 µM | OVCAR-4 > 100 µM | EKVX > 100 µM | TK-10 > 100 µM | Hs-578T > 100 µM | SNB-19 > 100 µM | OVCAR-5 > 100 µM | DU-145 > 100 µM | ACHN > 100 µM | HL-60 59.3 µM | A498 > 100 µM | NCI-H522 > 100 µM

Oc1cn(-c2ccc(Cl)cc2)nc1-c1nnc(Nc2ccccc2)o1
inactive: MDA-MB-435 16.8 µM | SF-539 15.3 µM | MCF7 16.9 µM | NCI-H460 19.9 µM | OVCAR-4 34.8 µM | EKVX 23.9 µM | OVCAR-8 20.9 µM | TK-10 18.5 µM | Hs-578T 24.1 µM | SNB-19 20.9 µM | OVCAR-5 88.7 µM | MDA-MB-231 12.4 µM | DU-145 15.4 µM | ACHN 25.6 µM | A498 12.6 µM | NCI-H522 17.3 µM

Fc1cc(C2=Nn3c(CNc4ccc(Cl)cc4)nnc3S/C2=C\c2ccc(-c3ccc(Cl)cc3)o2)c(Cl)cc1Cl
inactive: MDA-MB-435 68.5 µM | MCF7 38.8 µM | PC-3 14.9 µM | NCI-H460 65.3 µM | RPMI-8226 23.2 µM | EKVX 7.52 µM | OVCAR-8 51.1 µM | TK-10 17.5 µM | Hs-578T 46.7 µM | SNB-19 44 µM | OVCAR-5 18.7 µM | MDA-MB-231 10.2 µM | DU-145 65 µM | ACHN 34.9 µM | HL-60 > 100 µM | A498 17.5 µM | NCI-H522 38 µM

COCC[N+](CCNC(=O)c1cccc2c(N)c3cccc(C)c3nc12)(CCOC)Cc1ccc([N+](=O)[O-])cc1
inactive: MDA-MB-435 30 µM | SF-539 17.3 µM | MCF7 19.4 µM | PC-3 9.53 µM | NCI-H460 6.47 µM | RPMI-8226 5.6 µM | OVCAR-4 43.3 µM | EKVX 24.2 µM | OVCAR-8 26.6 µM | TK-10 67.3 µM | Hs-578T 10.8 µM | SNB-19 40.4 µM | OVCAR-5 30.9 µM | MDA-MB-231 28.1 µM | DU-145 17 µM | ACHN 32.4 µM | HL-60 12.9 µM | NCI-H522 5.37 µM

CN1CCN(CN2C(=O)C3C4C=CC(C3C2=O)C2C(=O)N(CN3CCN(C)CC3)C(=O)C42)CC1 (configuration not stated)
inactive: MDA-MB-435 > 74.6 µM | SF-539 > 49.3 µM | MCF7 27.2 µM | PC-3 > 84.5 µM | NCI-H460 > 53.8 µM | RPMI-8226 20.7 µM | OVCAR-4 > 100 µM | EKVX > 100 µM | OVCAR-8 > 100 µM | TK-10 > 70.3 µM | Hs-578T > 100 µM | SNB-19 > 63.1 µM | OVCAR-5 > 100 µM | MDA-MB-231 > 73.6 µM | DU-145 17.8 µM | ACHN > 64.4 µM | HL-60 20.5 µM | NCI-H522 > 42.1 µM

Cc1c(C#N)c2nc3ccccc3n2c(=O)/c1=C/Nc1ccc(Cl)cc1
inactive: MDA-MB-435 94.4 µM | SF-539 12.1 µM | MCF7 55.2 µM | NCI-H460 29.2 µM | RPMI-8226 37.8 µM | OVCAR-4 > 100 µM | EKVX 50.7 µM | OVCAR-8 51.3 µM | TK-10 14.2 µM | Hs-578T 10.8 µM | SNB-19 11 µM | OVCAR-5 9.64 µM | MDA-MB-231 24.8 µM | ACHN 10.6 µM | HL-60 > 100 µM | A498 15.9 µM | NCI-H522 46.2 µM

Cn1c2c(c3ccccc31)CC(=S)N1CCCC(CC2O)C1 (configuration not stated)
inactive: MDA-MB-435 > 100 µM | SF-539 > 100 µM | MCF7 > 100 µM | PC-3 > 100 µM | NCI-H460 > 100 µM | RPMI-8226 > 100 µM | OVCAR-4 > 100 µM | OVCAR-8 > 100 µM | TK-10 > 100 µM | Hs-578T > 100 µM | SNB-19 > 100 µM | MDA-MB-231 > 100 µM | DU-145 > 100 µM | ACHN > 100 µM | A498 > 100 µM | NCI-H522 > 100 µM

CC(C)C(C(=O)O)N1C(=O)c2ccccc2C1=O (configuration not stated)
inactive: MDA-MB-435 > 100 µM | MCF7 > 100 µM | PC-3 > 100 µM | NCI-H460 > 100 µM | RPMI-8226 > 100 µM | OVCAR-4 > 100 µM | EKVX > 100 µM | OVCAR-8 > 100 µM | TK-10 > 100 µM | Hs-578T > 100 µM | SNB-19 > 100 µM | OVCAR-5 > 100 µM | MDA-MB-231 > 100 µM | DU-145 > 100 µM | ACHN > 100 µM | HL-60 > 100 µM | A498 > 100 µM | NCI-H522 > 100 µM

CN(C)C(=C1c2cc([N+](=O)[O-])ccc2-c2ccc([N+](=O)[O-])cc21)N(C)C
inactive: MDA-MB-435 > 100 µM | MCF7 > 100 µM | PC-3 > 100 µM | RPMI-8226 3.32 µM | OVCAR-4 > 100 µM | EKVX > 100 µM | OVCAR-8 > 100 µM | TK-10 > 100 µM | Hs-578T > 100 µM | SNB-19 > 100 µM | OVCAR-5 > 100 µM | MDA-MB-231 > 100 µM | DU-145 > 100 µM | ACHN > 100 µM | A498 > 100 µM | NCI-H522 > 100 µM

O=C(Cn1c2ccc(Br)cc2c2nc3ccccc3nc21)NCc1ccccc1
inactive: MDA-MB-435 > 100 µM | PC-3 > 100 µM | NCI-H460 > 100 µM | RPMI-8226 > 100 µM | OVCAR-4 53.1 µM | OVCAR-8 23.4 µM | TK-10 17.7 µM | Hs-578T 22.1 µM | SNB-19 22.3 µM | OVCAR-5 > 100 µM | MDA-MB-231 35.4 µM | DU-145 > 100 µM | ACHN 13.4 µM | A498 31.2 µM

Clc1nc2c(N3CCCC3)nc(N3CCNCC3)nc2[nH]1
inactive: MDA-MB-435 18.7 µM | SF-539 18.4 µM | MCF7 17.7 µM | PC-3 17.8 µM | NCI-H460 17.6 µM | RPMI-8226 21.3 µM | OVCAR-4 18.5 µM | EKVX 17.3 µM | OVCAR-8 16 µM | TK-10 57.5 µM | Hs-578T > 100 µM | SNB-19 17.6 µM | OVCAR-5 19.3 µM | MDA-MB-231 16.4 µM | DU-145 16.4 µM | ACHN 19.9 µM | HL-60 19.5 µM | NCI-H522 17 µM

CCCCOC(=O)C1CC[C@H]2[C@@H]3CCc4cc(OC(=O)c5cccc6c(=O)c7ccccc7[nH]c56)ccc4[C@H]3CC[C@]12C (some centres not stated)
inactive: MDA-MB-435 8.63 µM | MCF7 13.3 µM | PC-3 8.71 µM | RPMI-8226 9.06 µM | OVCAR-4 7.78 µM | EKVX 2.48 µM | OVCAR-8 10.7 µM | TK-10 7.96 µM | Hs-578T 12.9 µM | OVCAR-5 11.3 µM | MDA-MB-231 6.98 µM | DU-145 8.17 µM | ACHN 8.69 µM | HL-60 5.86 µM | A498 8.83 µM | NCI-H522 9.64 µM

O=C1Nc2c(Cl)cc(Cl)cc2/C1=N/N=C/c1ccco1
inactive: MDA-MB-435 29.9 µM | SF-539 29.1 µM | MCF7 20.2 µM | PC-3 29.8 µM | NCI-H460 28.2 µM | OVCAR-4 49.3 µM | EKVX 7.6 µM | OVCAR-8 22.8 µM | TK-10 48.5 µM | Hs-578T 32.7 µM | SNB-19 80.7 µM | OVCAR-5 61 µM | MDA-MB-231 20.3 µM | ACHN 34.1 µM | HL-60 29.7 µM | A498 21.2 µM

CN(C)Cc1cc(C(=O)/C=C/c2c(F)cccc2Cl)cc(CN(C)C)c1O
inactive: MDA-MB-435 13.8 µM | MCF7 3.03 µM | PC-3 13.7 µM | NCI-H460 2.37 µM | RPMI-8226 17.2 µM | OVCAR-4 15.2 µM | EKVX 12.8 µM | OVCAR-8 12.4 µM | TK-10 3.04 µM | Hs-578T 17.5 µM | SNB-19 18.1 µM | OVCAR-5 18.4 µM | MDA-MB-231 13.1 µM | DU-145 8.77 µM | ACHN 3.9 µM | HL-60 3.02 µM | A498 6.5 µM
